Reference: patent US12458602B2, “Realizing the nano-amorphous state of materials inside nano-porous templates” (The Chinese University of Hong Kong, priority 2021, dated 2025)

Test: In-vitro dissolution test in deionized water
Format: physicochemical
Details: room temperature
Description: The total drug dose is about 50 mg dissolved in 1 L of deionized water at the room temperature. In order to obtain the concentration versus time plot, a series of samples (3 mL) are withdrawn at predetermined time points, and the same amount of fresh media is added back to maintain a constant volume (1 L). These withdrawn samples are filtered by 0.22 μm MCE filters, and their concentrations are then determined with a UV spectrophotometer.

| Compound | drug released in 6 hours [%] |
| --- | --- |
| CC(C(=O)O)c1ccc(-c2ccccc2)c(F)c1 (centres unmarked) [Flurbiprofen crystal, Flurbiprofen] | 9.5 |
| CCC(COC(=O)c1cc(OC)c(OC)c(OC)c1)(c1ccccc1)N(C)C (centres unmarked) [Trimebutine crystal, Trimebutine] | 1.18 |
